Read-outs that look alike come from different tables or passages of the source.
Legend:
Androgen receptor (AR) = target: T1, Androgen receptor (AR) (Homo sapiens, UniProt P10275, T878A); assay: Assessment of AR proteolytic activity (Western blotting of LNCap cell lysates); type: cell-based; settings: 24 hours of treatment, Western blotting quantified with Image J; for remaining activity at 1 µM: read-out: Degradation (1 μM treated in LNCaP, % AR remaining)
T1 construct: 5.5×10^5 LNCap cells were injected into each well of a 6-well plate; endogenous in cells; host or cells: LNCaP
T1 sequence (P10275 1-920 T878A): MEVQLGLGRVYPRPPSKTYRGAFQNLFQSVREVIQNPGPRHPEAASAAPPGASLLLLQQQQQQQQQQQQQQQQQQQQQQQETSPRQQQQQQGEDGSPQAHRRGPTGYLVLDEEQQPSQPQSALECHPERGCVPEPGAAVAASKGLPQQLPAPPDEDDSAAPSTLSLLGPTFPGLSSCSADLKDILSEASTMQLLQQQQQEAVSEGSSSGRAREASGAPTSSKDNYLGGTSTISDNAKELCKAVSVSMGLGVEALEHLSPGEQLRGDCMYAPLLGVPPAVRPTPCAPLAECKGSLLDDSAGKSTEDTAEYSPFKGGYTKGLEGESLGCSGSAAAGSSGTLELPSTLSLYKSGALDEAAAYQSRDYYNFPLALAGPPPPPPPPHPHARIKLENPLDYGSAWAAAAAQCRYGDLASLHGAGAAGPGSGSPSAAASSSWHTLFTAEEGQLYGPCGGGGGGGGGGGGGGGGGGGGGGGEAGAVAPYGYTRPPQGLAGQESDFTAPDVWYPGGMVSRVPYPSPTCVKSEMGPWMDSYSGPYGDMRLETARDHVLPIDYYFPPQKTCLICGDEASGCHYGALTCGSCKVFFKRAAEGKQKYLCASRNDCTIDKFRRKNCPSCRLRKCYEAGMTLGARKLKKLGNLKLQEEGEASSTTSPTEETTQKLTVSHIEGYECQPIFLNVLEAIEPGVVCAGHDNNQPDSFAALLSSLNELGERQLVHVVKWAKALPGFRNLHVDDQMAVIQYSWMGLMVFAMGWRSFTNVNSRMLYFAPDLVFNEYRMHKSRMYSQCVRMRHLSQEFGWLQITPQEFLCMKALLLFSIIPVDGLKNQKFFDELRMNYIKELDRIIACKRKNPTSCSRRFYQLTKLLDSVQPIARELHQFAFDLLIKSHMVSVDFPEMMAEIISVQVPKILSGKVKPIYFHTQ
Summary of the method: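 AR degradation read by Western blot densitometry on RIPA lysates (pH 7.5, protease inhibitor cocktail). Lysates came from LNCap cells, 5.5×10^5 per well, exposed to compound for 24 hours.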

LNCaP cells [1] = test system: LNCaP cells
LNCaP cells [2] = assay: Cytotoxicity assessment (Cell-titer-glo cell viability), LNCaP
VCaP cells = assay: Cytotoxicity assessment (Cell-titer-glo cell viability), VCaP
[3] = read-out: LNCAP (CC50), LNCaP cells, 6 days of treatment, Cell-titer-glo, vs DMSO
[4] = read-out: VCaP (CC50), VCaP cells, 6 days of treatment, Cell-titer-glo, vs DMSO
[5] = Homo sapiens, LNCaP, 144 h, read-out: LNCAP (CC50, μM)
[6] = Homo sapiens, VCaP, 144 h, read-out: VCaP (CC50, μM)

Compound	Degradation (1 μM treated in LNCaP, % AR remaining) (Androgen receptor (AR)) [%]	remaining activity at 1 µM (Androgen receptor (AR)) [%]	CC50 (LNCaP cells [1]) [nM]	CC50 (LNCaP cells [2]; [3]) [µM]	CC50 (VCaP cells; [4]) [µM]	CC50 (LNCaP cells [2]; [5]) [µM]	CC50 (VCaP cells; [6]) [µM]
CC1(C)[C@H](NC(=O)c2ccc(N3CCN(CC4CCN(C(=O)CNc5ccc6nnn(C7CCC(=O)NC7=O)c(=O)c6c5)CC4)CC3)cc2)C(C)(C)[C@H]1Oc1ccc(C#N)c(Cl)c1 (some centres unmarked) [Example 9, N-((1r,3r)-3-(3-chloro-4-cyanophenoxy)-2,2,4,4-tetramethylcyclobutyl)-4-(4-((1-((3-(2,6-dioxopiperidin-3-yl)-4-oxo-3,4-dihydrobenzo[d][1,2,3]triazin-6-yl)glycyl)piperidin-4-yl)methyl)piperazin-1-yl)benzamide]	39.9	–	117	–	–	–	–
CC1(C)C(NC(=O)c2ccc(OCCOCCOCCOCCOCCOCCCCNC(=O)CNc3cccc4nnn(C5CCC(=O)NC5=O)c(=O)c34)cc2)C(C)(C)C1Oc1ccc(C#N)c(Cl)c1 (centres unmarked) [Example 14, N-((1r,3r)-3-(3-chloro-4-cyanophenoxy)-2,2,4,4-tetramethylcyclobutyl)-4-((22-((3-(2,6-dioxopiperidin-3-yl)-4-oxo-3,4-dihydrobenzo[d][1,2,3]triazin-5-yl)amino)-21-oxo-3,6,9,12,15-pentaoxa-20-azadocosyl)oxy)benzamide]	35.3	–	4020	–	–	–	–
CC1(C)C(NC(=O)c2ccc(OCCOCCOCCOCCOCCOCCCCNc3ccc4nnn(C5CCC(=O)NC5=O)c(=O)c4c3)cc2)C(C)(C)C1Oc1ccc(C#N)c(Cl)c1 (centres unmarked) [Example 17, N-((1r,3r)-3-(3-chloro-4-cyanophenoxy)-2,2,4,4-tetramethylcyclobutyl)-4-((19-((3-(2,6-dioxopiperidin-3-yl)-4-oxo-3,4-dihydrobenzo[d][1,2,3]triazin-6-yl)amino)-3,6,9,12,15-pentaoxanonadecyl)oxy)benzamide]	6.7	–	835	–	–	–	–
CC1(C)[C@H](NC(=O)c2ccc(N3CCN(CCC4CCN(C(=O)C5CCN(c6ccc7nnn(C8CCC(=O)NC8=O)c(=O)c7c6)CC5)CC4)CC3)cc2)C(C)(C)[C@H]1Oc1ccc(C#N)c(Cl)c1 (some centres unmarked) [Example 26, N-((1r,3r)-3-(3-chloro-4-cyanophenoxy)-2,2,4,4-tetramethylcyclobutyl)-4-(4-(2-(1-(1-(3-(2,6-dioxopiperidin-3-yl)-4-oxo-3,4-dihydrobenzo[d][1,2,3]triazin-6-yl)piperidine-4-carbonyl)piperidin-4-yl)ethyl)piperazin-1-yl)benzamide]	7	–	–	0.361	0.0516	–	–
CC1(C)[C@H](NC(=O)c2ccc(N3CCN(CCOC4CCN(C(=O)CNc5ccc6nnn(C7CCC(=O)NC7=O)c(=O)c6c5)CC4)CC3)cc2)C(C)(C)[C@H]1Oc1ccc(C#N)c(Cl)c1 (some centres unmarked) [Example 31, N-((1r,3r)-3-(3-chloro-4-cyanophenoxy)-2,2,4,4-tetramethylcyclobutyl)-4-(4-(2-((1-((3-(2,6-dioxopiperidin-3-yl)-4-oxo-3,4-dihydrobenzo[d][1,2,3]triazin-6-yl)glycyl)piperidin-4-yl)oxy)ethyl)piperazin-1-yl)benzamide]	–	5	–	–	–	0.852	0.0571
CC1(C)[C@H](NC(=O)c2ccc(N3CCN(CCOC4CCN(C(=O)COc5ccc6nnn(C7CCC(=O)NC7=O)c(=O)c6c5)CC4)CC3)cc2)C(C)(C)[C@H]1Oc1ccc(C#N)c(Cl)c1 (some centres unmarked) [Example 32, N-((1r,3r)-3-(3-chloro-4-cyanophenoxy)-2,2,4,4-tetramethylcyclobutyl)-4-(4-(2-((1-(2-((3-(2,6-dioxopiperidin-3-yl)-4-oxo-3,4-dihydrobenzo[d][1,2,3]triazin-6-yl)oxy)acetyl)piperidin-4-yl)oxy)ethyl)piperazin-1-yl)benzamide]	–	2	–	–	–	1.3	0.141
N-((1r,3r)-3-(3-chloro-4-cyanophenoxy)-2,2,4,4-tetramethylcyclobutyl)-4-(4-(2-((1-(1-(3-(2,6-dioxopiperidin-3-yl)-4-oxo-3,4-dihydrobenzo[d][1,2,3]triazin-6-yl)azetidine-3-carbonyl)piperidin-4-yl)oxy)ethyl)piperazin-1-yl)benzamide [Example 33]	14	–	–	0.762	0.057	–	–
N-((1r,3r)-3-(3-chloro-4-cyanophenoxy)-2,2,4,4-tetramethylcyclobutyl)-4-(4-(2-((1-(1-(3-(2,6-dioxopiperidin-3-yl)-4-oxo-3,4-dihydrobenzo[d][1,2,3]triazin-6-yl)piperidine-4-carbonyl piperidin-4-yl)oxy)ethyl)piperazin-1-yl)benzamide [Example 30]	4	–	–	0.847	0.08	–	–

Continued, in another order:

Degradation (1 μM treated in LNCaP, % AR remaining) (Androgen receptor (AR)) [%]	remaining activity at 1 µM (Androgen receptor (AR)) [%]	Compound	CC50 (LNCaP cells [1]) [nM]	CC50 (LNCaP cells [2]; [3]) [µM]	CC50 (VCaP cells; [4]) [µM]	CC50 (LNCaP cells [2]; [5]) [µM]	CC50 (VCaP cells; [6]) [µM]
100	–	CC1(C)C(NC(=O)c2ccc(OCCOCCOCCOCCOCCNc3cccc4nnn(C5CCC(=O)NC5=O)c(=O)c34)cc2)C(C)(C)C1Oc1ccc(C#N)c(Cl)c1 (centres unmarked) [Example 2, N-((1r,3r)-3-(3-chloro-4-cyanophenoxy)-2,2,4,4-tetramethylcyclobutyl)-4-((14-((3-(2,6-dioxopiperidin-3-yl)-4-oxo-3,4-dihydrobenzo[d][1,2,3]triazin-5-yl)amino)-3,6,9,12-tetraoxatetradecyl)oxy)benzamide]	4930	–	–	–	–
6	–	CC1(C)C(NC(=O)c2ccc(OCCOCCOCCOCCOCCOCCCCNc3cccc4nnn(C5CCC(=O)NC5=O)c(=O)c34)cc2)C(C)(C)C1Oc1ccc(C#N)c(Cl)c1 (centres unmarked) [Example 5, N-((1r,3r)-3-(3-chloro-4-cyanophenoxy)-2,2,4,4-tetramethylcyclobutyl)-4-((19-((3-(2,6-dioxopiperidin-3-yl)-4-oxo-3,4-dihydrobenzo[d][1,2,3]triazin-5-yl)amino)-3,6,9,12,15-pentaoxanonadecyl)oxy)benzamide]	1600	–	–	–	–
24.3	–	CC1(C)[C@H](NC(=O)c2ccc(N3CCN(CC4CCN(c5cccc6nnn(C7CCC(=O)NC7=O)c(=O)c56)CC4)CC3)cc2)C(C)(C)[C@H]1Oc1ccc(C#N)c(Cl)c1 (some centres unmarked) [Example 7, N-((1r,3r)-3-(3-chloro-4-cyanophenoxy)-2,2,4,4-tetramethylcyclobutyl)-4-(4-((1-(3-(2,6-dioxopiperidin-3-yl)-4-oxo-3,4-dihydrobenzo[d][1,2,3]triazin-5-yl)piperidin-4-yl)methyl)piperazin-1-yl)benzamide]	902	–	–	–	–
7	–	CC1(C)[C@H](NC(=O)c2ccc(N3CCN(CC4CCN(c5ccc6c(=O)n(C7CCC(=O)NC7=O)nnc6c5)CC4)CC3)cc2)C(C)(C)[C@H]1Oc1ccc(C#N)c(Cl)c1 (some centres unmarked) [Example 12, N-((1r,3r)-3-(3-chloro-4-cyanophenoxy)-2,2,4,4-tetramethylcyclobutyl)-4-(4-((1-(3-(2,6-dioxopiperidin-3-yl)-4-oxo-3,4-dihydrobenzo[d][1,2,3]triazin-7-yl)piperidin-4-yl)methyl)piperazin-1-yl)benzamide]	1310	–	–	–	–
–	11	CC1(C)[C@H](NC(=O)c2ccc(N3CCN(CCOC4CCN(c5ccc6nnn(C7CCC(=O)NC7=O)c(=O)c6c5)CC4)CC3)cc2)C(C)(C)[C@H]1Oc1ccc(C#N)c(Cl)c1 (some centres unmarked) [Example 34, N-((1r,3r)-3-(3-chloro-4-cyanophenoxy)-2,2,4,4-tetramethylcyclobutyl)-4-(4-(2-((1-(3-(2,6-dioxopiperidin-3-yl)-4-oxo-3,4-dihydrobenzo[d][1,2,3]triazin-6-yl)piperidin-4-yl)oxy)ethyl)piperazin-1-yl)benzamide]	–	–	–	0.523	0.0702

— patent publication US20240018123A1, “COMPOUND FOR INHIBITING OR DISINTEGRATING ANDROGEN RECEPTOR, AND PHARMACEUTICAL USE THEREOF” (KOREA RESEARCH INSTITUTE OF CHEMICAL TECHNOLOGY, priority 2020, published 2024)
